Measured values reported in PMC10831447 (Molecular Cancer Therapeutics, 2023).

Assays:
25 RCC PDX models = experiment: RCC PDX in vivo study, all models; design: species or system mouse
A549 wild-type [1] = experiment: Colony formation assay; assay type: cell-based, human; details: 1E−05, 2.5E−06, 5E−07 mol/L
A549 p53 KO [2] = experiment: Colony formation assay; assay type: cell-based, human; details: isogenic A549 TP53 KO; 1E−05, 2.5E−06, 5E−07 mol/L
[3] = cited from earlier work
A549 wild-type [4] = experiment: Cell-cycle analysis by FACS; assay type: cell-based, human; details: A549 parental; 24 hours; M8891 1E−06 mol/L, nutlin-3A 3E−06 mol/L
A549 p53 KO [5] = experiment: Cell-cycle analysis by FACS; assay type: cell-based, human; details: A549 TP53 KO; M8891 1E−06 mol/L, nutlin-3A 3E−06 mol/L

Row | Compound | integrated survival analysis based on RTV changes (AUC) (25 RCC PDX models; across all 25 PDX models) | antitumor activity in cohort of 25 RCC PDX models (25 RCC PDX models; dose and schedule tested in this study) | colony formation (A549 wild-type [1]) | colony formation (A549 p53 KO [2]) | elimination [3] | side effects [3] | cell-cycle distribution (A549 wild-type [4]) | shift in cell-cycle distribution (A549 p53 KO [5])
1 | CCN(CC)CCNC(=O)c1c(C)[nH]c(/C=C2\C(=O)Nc3ccc(F)cc32)c1C [Sunitinib] | clear survival benefit | moderate | – | – | – | – | – | –
2 | CO[C@@H]1[C@H](OC(=O)NC(=O)CCl)CC[C@]2(CO2)[C@H]1[C@@]1(C)O[C@@H]1CC=C(C)C [TNP-470] | – | – | blocked | resistant | rapid elimination | neurologic side effects | – | –
3 | COc1ccc(C2=N[C@@H](c3ccc(Cl)cc3)[C@@H](c3ccc(Cl)cc3)N2C(=O)N2CCNC(=O)C2)c(OC(C)C)c1 [nutlin-3A] | – | – | significantly reduced colony formation | resistant | – | – | more prominent arrest in G2–M | not observed
